According to ChEMBL document CHEMBL3137667, “[Drug-induced liver injury; fourteenth updated edition of the bibliographic database of liver injuries and related drugs]” (Gastroenterol Clin Biol, 2004):

Key:
[1] = Comments (NB not yet translated). [column 'COMMENTAIRES' in source]; details: human
[2] = human, serum, 4383 h
[3] = Highest frequency of acute liver toxicity observed during clinical trials, expressed as a percentage. [column '% AIGUE' in source]; details: human
[4] = human
[5] = Proposed mechanism(s) of liver damage. [column 'MEC' in source]; details: human
[6] = human; remark: listed apart in the source
[7] = Highest frequency of moderate liver toxicity observed during clinical trials, expressed as a percentage. [column '% BIOL' in source]; details: human
[8] = human; remark: listed apart in the source
[9] = human; remark: listed apart in the source
[10] = human; remark: listed apart in the source
[11] = human; remark: listed apart in the source
[12] = Presence of at least one case with successful reintroduction. [column 'REINT' in source]; details: human
[13] = human; remark: listed apart in the source
[14] = human; remark: listed apart in the source
[15] = human, serum
[16] = human; remark: listed apart in the source
[17] = human, serum; remark: listed apart in the source
[18] = human; remark: listed apart in the source
[19] = Times to onset, minimal and maximal, observed in the indexed observations. [column 'DELAI' in source]; details: human
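For Hepatotoxicity (association with vascular disease) in this document: count of indexed literature references reporting vascular liver injury in humans, e.g. peliosis hepatitis, hepatic veno-occlusive disease or Budd-Chiari syndrome.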
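For Hepatotoxicity (benign tumour) in this document: value is a count of indexed literature references citing a benign tumour confirmed by histopathology.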
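For Hepatotoxicity (choleostasis) in this document: human cholestatic liver injury, shown by histopathology or by peak ALT or AST elevation over alkaline phosphatase ratio below 2, value counts indexed literature reports.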
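For Hepatotoxicity (chronic liver disease) in this document: chronic liver injury confirmed by histopathology or persistently raised serum aminotransferase activity beyond 6 months, value given as the count of indexed literature references.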
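For Hepatotoxicity (cirrhosis) in this document: value is a count of indexed literature references reporting cirrhosis confirmed by histopathology.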
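For Hepatotoxicity (cytolytic) in this document: human cytolytic liver injury, shown by histopathology or by a ratio above 5 of peak ALT or AST elevation to alkaline phosphatase elevation, value counts indexed references.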
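For Hepatotoxicity (granulomatous hepatitis) in this document: value is a count of indexed literature references reporting granulomatous liver disease confirmed by histopathology.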
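For Hepatotoxicity (malignant tumour) in this document: malignant tumour confirmed by histopathology, value gives the count of indexed literature references reporting it.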
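For Hepatotoxicity (severe hepatitis) in this document: human clinical data: severe hepatitis, meaning potentially life-threatening liver failure or clinically observed cases, the value counts how many indexed literature references report it.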
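For Hepatotoxicity (steatosis) in this document: steatosis confirmed by histopathology, value is the count of indexed references.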

| SMILES | Hepatotoxicity (comment) [1] | Hepatotoxicity (chronic liver disease) [2] | Hepatotoxicity (acute) [3] [%] | Hepatotoxicity (association with vascular disease) [4] | Hepatotoxicity (mechanism) [5] | Hepatotoxicity (animal toxicity known) [6] | Hepatotoxicity (moderate) [7] [%] | Hepatotoxicity (granulomatous hepatitis) [8] | Hepatotoxicity (choleostasis) [9] | Hepatotoxicity (cirrhosis) [10] | Hepatotoxicity (cytolytic) [11] | Hepatotoxicity (successful reintroduction) [12] | Hepatotoxicity (severe hepatitis) [13] | Hepatotoxicity (malignant tumour) [14] | Hepatotoxicity (moderate) [15] | Hepatotoxicity (steatosis) [16] | Hepatotoxicity (acute) [17] | Hepatotoxicity (benign tumour) [18] | Hepatotoxicity (time to onset) [19] |
| --- | --- | --- | --- | --- | --- | --- | --- | --- | --- | --- | --- | --- | --- | --- | --- | --- | --- | --- | --- |
| NNC(=O)c1ccncc1 [ISONIAZID] | I/CARBAMAZE/ENFLURANE/PARACETAMOL/RIFAMPICINE/RIFAMYCINE/VALPROATE | 3 | 26.7 | 0 | Dose-dependant, Reactive metabolite | yes | 51.2 | 1 | 11 | 4 | 61 | yes | 40 | 0 | 60 | 1 | 91 | 0 | 1 day - 1 year |
| CC(=O)N1CCN(c2ccc(OCC3COC(Cn4ccnc4)(c4ccc(Cl)cc4Cl)O3)cc2)CC1 (centres undefined) [KETOCONAZOLE] | CHOLESTASE_PROLONGEE | 3 | 2.9 | 0 | Toxic, Dose-dependant | yes | 50 | 1 | 19 | 0 | 37 | yes | 14 | 0 | 62 | 2 | 45 | 0 | 3 days - 5 years |
| COC(=O)Nc1nc2ccc(C(=O)c3ccccc3)cc2[nH]1 [MEBENDAZOLE] | AC_ANTI-ML I/CIMETIDINE | 0 | 0 | 0 | Allergic, Dose-dependant | yes | 30 | 1 | 0 | 0 | 3 | yes | 0 | 0 | 13 | 0 | 3 | 0 | 2 days - 2 months |
| Cc1ccc(S(=O)(=O)NC(=O)NC2CCCCC2)cc1N [METAHEXAMIDE] | PERICHOLANGITE RC/CARBUTAMIDE | 0 | 4.4 | 0 | Dose-dependant | yes | 24 | 0 | 4 | 1 | 7 | yes | 2 | 0 | 6 | 0 | 11 | 0 | 4 days - 1 week |
| CN(Cc1cnc2nc(N)nc(N)c2n1)c1ccc(C(=O)N[C@@H](CCC(=O)O)C(=O)O)cc1 [METHOTREXATE] | I/ETRETINATE REACTIVATION_HVB SHNA MVO | 45 | 35 | 5 | Dose-dependant | yes | 88 | 8 | 2 | 42 | 21 | yes | 5 | 8 | 173 | 16 | 26 | 0 | 4 hours - 16 years |
| COC(F)(F)C(Cl)Cl [METHOXYFLURANE] | RC/HALOTHANE | 0 | 0 | 0 | Allergic, Reactive metabolite | yes | 0 | 0 | 0 | 0 | 27 | yes | 19 | 0 | 8 | 3 | 32 | 0 | 1 day - 20 days |
| CN(C)c1ccc(O)c2c1C[C@H]1C[C@H]3[C@H](N(C)C)C(O)=C(C(N)=O)C(=O)[C@@]3(O)C(O)=C1C2=O [MINOCYCLINE] | AC_ANTI-N/-ADN/-pNCA REACTIVATION_VH-6 | 11 | 0 | 0 | Allergic, Dose-dependant, Toxic Metabolite | yes | 41.7 | 1 | 2 | 0 | 36 | yes | 8 | 0 | 17 | 2 | 48 | 0 | 4 days - 12 years |
| CCC(=O)O[C@](Cc1ccccc1)(c1ccccc1)[C@H](C)CN(C)C [PROPOXYPHENE] | CHOLANGITE | 1 | 0 | 0 | Allergic, Dose-dependant | yes | 14.3 | 0 | 20 | 0 | 7 | yes | 0 | 0 | 6 | 0 | 21 | 0 | 1 day - 1.5 years |
| NC(=O)c1cnccn1 [PYRAZINAMIDE] | I/OFLOXACINE AC_ANTI-N | 1 | 31.8 | 0 | Allergic, Dose-dependant | yes | 36.4 | 1 | 8 | 0 | 28 | yes | 19 | 0 | 21 | 0 | 51 | 0 | 2 hours - 1.2 years |
| CNC(=O)OCc1cccc(COC(=O)NC)n1 [PYRICARBATE] | AC_ANTI-MFR/-ML | 0 | 0.7 | 0 | Allergic | A | 10 | 0 | 4 | 0 | 8 | yes | 3 | 0 | 4 | 0 | 9 | 0 | 2 weeks - 6 months |
| CO[C@H]1/C=C/O[C@@]2(C)Oc3c(C)c(O)c4c(O)c(c(/C=N/N5CCN(C)CC5)c(O)c4c3C2=O)NC(=O)/C(C)=C\C=C\[C@H](C)[C@H](O)[C@@H](C)[C@@H](O)[C@@H](C)[C@H](OC(C)=O)[C@@H]1C [RIFAMPIN] | AC_ANTI-N I/ISONIAZIDE/TROLEANDOMYCINE | 0 | 7.3 | 0 | Allergic, Dose-dependant | yes | 23 | 0 | 19 | 0 | 14 | yes | 6 | 0 | 22 | 0 | 38 | 0 | 2 days - 14 months |
